Results reported in patent publication US9566282B2, “Methods for identifying and validating selective anti-cancer stem cell agents” (MCMASTER UNIVERSITY, priority 2011, dated 2017).

Test system: v1O4 and H9 cells
Test: p53 staining of v1O4 and H9 cells
Type: cell-based, human
Text: Variant neoplastic stem cells (v1O4 cells) and normal H9 stem cells were fixed and stained for p53 expression following treatment with selective-activity compounds.

Row | SMILES | activation of the p53 stress response (% cells positive for p53)
1 | OCCN1CCN(CCCN2c3ccccc3Sc3ccc(Cl)cc32)CC1 [perphenazine] | little or no activation of the p53 stress response
2 | OCCN1CCN(CCCN2c3ccccc3Sc3ccc(C(F)(F)F)cc32)CC1 [fluphenazine] | little or no activation of the p53 stress response
3 | CN1CCN(CCCN2c3ccccc3Sc3ccc(Cl)cc32)CC1 [prochlorperazine] | little or no activation of the p53 stress response
4 | CN1CCN(CCCN2c3ccccc3Sc3ccc(C(F)(F)F)cc32)CC1 [trifluoperazine] | little or no activation of the p53 stress response
5 | CN(C)CCCN1c2ccccc2Sc2ccc(C(F)(F)F)cc21 [triflupromazine] | little or no activation of the p53 stress response
